Assay type in all cases: in vivo
Assay [1] concerns Blumeria graminis f.sp. tritici. As to the kind of experiment: Blumeria test (wheat)/preventive. To be noted: preventive spray, evaluated 7 days after inoculation. The text has this: (§1) The expected fungicidal action for a given combination of two or three active compounds can be calculated as follows, according to S. R. Colby (“Calculating Synergistic and Antagonistic Responses of Herbicide Combinations”, Weeds 1961 15, 20-22):
(§2) If • X is the efficacy when employing active compound A at an application rate of m g/ha, • Y is the efficacy when employing active compound B at an application rate of n g/ha and • E is the efficacy when employing active compounds A and B at application rates of m and n g/ha,
(§3) Here, the efficacy is determined in %. 0% means an efficacy which corresponds to that of the control, whereas an efficacy of 100% means that no infection is observed.
(§4) If the actual fungicidal action exceeds the calculated value, the action of the combination is superadditive, i.e. a synergistic effect is present. In this case, the actually observed efficacy must exceed the value calculated using the above formula for the expected efficacy (E).
Blumeria Test (Wheat)/Preventive
(§5) Solvent: 49 parts by weight of n,n-dimethylacetamid
(§6) Emulsifier: 1 part by weight of alkylaryl polyglycol ether […]
(§7) The test is evaluated 7 days after the inoculation. […]

The subject of the next assay is Venturia inaequalis. Briefly: Venturia test (apples)/protective. To be noted: protective spray, evaluated 10 days after inoculation.
Source text: as §1, §2, §3, §4
Venturia Test (Apples)/Protective
(§8) Solvent: 24,5 parts by weight of acetone • 24,5 parts by weight of dimethylacetamide
(§9) Emulsifier: 1 part by weight of alkylaryl polyglycol ether
(§10) To produce a suitable preparation of active compound, 1 part by weight of active compound is mixed with the stated amounts of solvent and emulsifier, and the concentrate is diluted with water to the desired concentration.
To test for protective activity, young plants are sprayed with the preparation of active compound at the stated rate of application. After the spray coating has dried on, the plants are inoculated with an aqueous conidia suspension of the causal agent of apple scab (Venturia inaequalis) and then remain for 1 day in an incubation cabinet at approximately 20° C. and a relative atmospheric humidity of 100%.
(§11) The plants are then placed in a greenhouse at approximately 21° C. and a relative atmospheric humidity of approximately 90%.
(§12) The test is evaluated 10 days after the inoculation. 0% means an efficacy which corresponds to that of the control, while an efficacy of 100% means that no disease is observed.

In a further assay the test system is Septoria tritici. As to the kind of experiment: Septoria tritici-test (wheat)/preventive. To be noted: preventive spray, evaluated 21 days after inoculation.
Source text: as §1, §2, §3, §4
Septoria tritici-Test (Wheat)/Preventive
as §5, §9
(§13) To produce a suitable preparation of active compound, 1 part by weight of active compound or active compound combination is mixed with the stated amounts of solvent and emulsifier, and the concentrate is diluted with water to the desired concentration.
(§14) To test for preventive activity, young plants are sprayed with the preparation of active compound or active compound combination at the stated rate of application.
After the spray coating has been dried on, the plants are sprayed with a spore suspension of Septoria tritici. The plants remain for 48 hours in an incubation cabinet at approximately 20° C. and a relative atmospheric humidity of approximately 100% and afterwards for 60 hours at approximately 15° C. in a translucent incubation cabinet at a relative atmospheric humidity of approximately 100%.
The plants are placed in the greenhouse at a temperature of approximately 15° C. and a relative atmospheric humidity of approximately 80%.
The test is evaluated 21 days after the inoculation. 0% means an efficacy which corresponds to that of the control, while an efficacy of 100% means that no disease is observed.

The next assay relates to Pyrenophora teres. Briefly: Pyrenophora teres-test (barley)/preventive. To be noted: 192 h, read-out: Efficacy in %.
Source text: as §1, §2, §3, §4
Pyrenophora teres-Test (Barley)/Preventive
as §5, §9, §13, §14
After the spray coating has been dried on, the plants are sprayed with a spore suspension of Pyrenophora teres. The plants remain for 48 hours in an incubation cabinet at approximately 20° C. and a relative atmospheric humidity of approximately 100%.
The plants are placed in the greenhouse at a temperature of approximately 20° C. and a relative atmospheric humidity of approximately 80%.
The test is evaluated 8 days after the inoculation. 0% means an efficacy which corresponds to that of the control, while an efficacy of 100% means that no disease is observed.

The test system of a further assay is Uromyces appendiculatus. Briefly: Uromyces test (beans)/protective. To be noted: protective spray, evaluated 10 days after inoculation.
Source text: as §1, §2, §3, §4
Uromyces Test (Beans)/Protective
as §8, §9, §10
To test for protective activity, young plants are sprayed with the preparation of active compound at the stated rate of application. After the spray coating has dried on, the plants are inoculated with an aqueous spore suspension of the causal agent of bean rust (Uromyces appendiculatus) and then remain for 1 day in an incubation cabinet at approximately 20° C. and a relative atmospheric humidity of 100%.
as §11, §12

The subject of another assay is Sphaerotheca fuliginea. Briefly: Sphaerotheca test (cucumbers)/protective. To be noted: protective spray, evaluated 7 days after inoculation.
Source text: as §1, §2, §3, §4
Sphaerotheca Test (Cucumbers)/Protective
as §8, §6, §7

Setting [2] is: barley, preventive spray, 62.5 ppm, evaluated 8 days after inoculation.

Molecules are shown by their SMILES. Read-outs that look alike come from different tables or passages of the source.

As for `COCC(=O)N(c1c(C)cccc1C)[C@H](C)C(=O)OC` [Ex B4 Metalaxyl M, Metalaxyl M], the figures for the Efficacy in % (in assay [1] (250 ppm); in the assay on Venturia inaequalis (200 ppm)) were 0% and 29%, respectively.
With `COCC(=O)N(c1c(C)cccc1C)C(C)C(=O)OC` (stereo not drawn) [Ex B4 Metalaxyl, Metalaxyl], in the assay on Septoria tritici (1000 ppm), the Efficacy in % came to 33%.
With `N#Cc1c[nH]cc1-c1cccc2c1OC(F)(F)O2` [Ex B4 Fludioxonil, Fludioxonil], the pest or weed control at 125 ppm with Pyrenophora teres stood at 44%. For the same molecule, the Efficacy in % in the assay on Venturia inaequalis (50 ppm) is reported as 26%; in the assay with Venturia inaequalis (100 ppm), 30%; with Uromyces appendiculatus (200 ppm), 70%.
Take `C[Si](C)(C)CC(O)(Cn1cncn1)c1ccc(F)cc1` (stereo not drawn) [Ex B2 Simeconazole, Simeconazole]: the Efficacy in % in the assay on Septoria tritici (1000 ppm) amounted to 67%; with Uromyces appendiculatus (5 ppm), 84%.
For `CCCN(CCOc1c(Cl)cc(Cl)cc1Cl)C(=O)n1ccnc1` [Ex B4 Prochloraz, Prochloraz], the pest or weed control at 62.5 ppm in the assay on Pyrenophora teres was determined as 89%.
With `Cn1cc(C(=O)Nc2ccc(F)cc2-c2ccc(Cl)c(Cl)c2)c(C(F)F)n1` [Ex B3 Bixafen, Bixafen], the pest or weed control at 62.5 ppm in the assay with Pyrenophora teres (setting [2]) came out at 78%. The Efficacy in % with Venturia inaequalis (1 ppm) stood at 73%.
In the case of `Cc1cc(O)no1` [Ex B2 Hymexazol, Hymexazol], in the assay with Pyrenophora teres (barley, preventive spray, 1000 ppm, evaluated 8 days after inoculation), the pest or weed control at 1000 ppm turned out to be 0%.
Turning to `Cc1nn(C)c(F)c1C(=O)Nc1ccccc1C(C)CC(C)C` (stereo not drawn) [N-[2-(1,3-Dimethylbutyl)phenyl]-5-fluor-1,3-dimethyl-1H-pyrazole-4-carboxamide], the pest or weed control at 62.5 ppm in the assay with Pyrenophora teres (setting [2]) came out at 89%.
For the molecule `CO/N=C(/C1=NOCCO1)c1ccccc1Oc1ncnc(Oc2ccccc2Cl)c1F` [Ex B1 Fluoxastrobin, Fluoxastrobin], the pest or weed control at 62.5 ppm with Pyrenophora teres (setting [2]) was found to be 67%.
Consider `CC(C)C1CCC(Cc2ccc(Cl)cc2)C1(O)Cn1cncn1` (stereo not drawn) [Ex B2 Ipconazole, Ipconazole], for which the pest or weed control at 250 ppm with Pyrenophora teres (barley, preventive spray, 250 ppm, evaluated 8 days after inoculation) stood at 33%. Besides, the Efficacy in % in the assay with Sphaerotheca fuliginea (5 ppm) came to 50%; with Sphaerotheca fuliginea (10 ppm), 77%.
Take `CO/N=C(/C(=O)OC)c1ccccc1CO/N=C(\C)c1cccc(C(F)(F)F)c1` [Ex B1 Trifloxystrobin, Trifloxystrobin]: the Efficacy in % in the assay with Septoria tritici (62.5 ppm) turned out to be 94%; in the assay with Uromyces appendiculatus (1 ppm), 70%.
Turning to `N#Cc1ccccc1NC(=O)c1snc(Cl)c1Cl` [Ex I-2], the pest or weed control at 250 ppm in the assay on Pyrenophora teres turned out to be 0%. In the assay on Pyrenophora teres, the pest or weed control at 1000 ppm was 11%. The Efficacy in % amounted to 0% in the assay on Septoria tritici (1000 ppm); 22% in assay [1] (1000 ppm); 0% with Venturia inaequalis (50 ppm); 19% with Venturia inaequalis (100 ppm); 37% in the assay with Venturia inaequalis (200 ppm); 8% in the assay on Uromyces appendiculatus (50 ppm). Also, the values for the Efficacy in % with Uromyces appendiculatus (100 ppm) and in the assay with Uromyces appendiculatus (200 ppm) were 0% and 15%, respectively.

The record behind these values is US8951934B2, “Active compound combinations” (Bayer CropScience AG, priority 2008, dated 2015).
